Data from publication PMC6440584 (Eurosurveillance, 2019).

Assays:
[1] = molecular target: neuraminidase (NA) of influenza A(H3N2) virus A/YOKOHAMA/87/2019 (Influenza A virus, UniProt A0A193ACB1); assay type: biochemical
[2] = molecular target: neuraminidase (NA) of influenza A(H3N2) virus A/YOKOHAMA/88/2019 (Influenza A virus, UniProt A0A193ACB1); assay type: biochemical

SMILES: CCC(CC)[C@H](NC(C)=O)[C@@H]1[C@H](O)[C@@H](C(=O)O)C[C@H]1N=C(N)N [Peramivir, peramivir]
- WHO criteria (fold change of IC50 compared with reference IC50) [1]: 0.16 (NI) (key: NI: normal inhibition)
- WHO criteria (fold change of IC50 compared with reference IC50) [2]: 0.13 (NI) (key: NI: normal inhibition)
